What was measured:
Type in all cases: cell-based, human
MCF-7 = assay: MTT anti-proliferative assay, MCF-7; details: Homo sapiens, MCF7
HepG-2 = assay: MTT anti-proliferative assay, HepG-2; details: Homo sapiens, HepG2
caspase-3 = assay: Caspase-3 expression level in HepG-2 cells; details: for Caspase-3 ± SE: HepG-2, at IC50 concentrations, control 0.460
Experimental: (§1) All synthesized compounds were tested at their cytotoxic concentrations in HepG-2 cells for analysis of gene expression levels of apoptotic markers caspase-3, caspase-9, TNF-α, and IL-6 proteins, and only two active compounds were tested for BAX and Bcl-2 proteins.
(§2) through Flow cytometric analysis.
(§3) Pellets were collected again and incubated with
(§4) Total RNA from vehicle-treated
(§5) (Thermo Scientific, USA).
(§6) All experiments were performed in […]

K-562 = assay: MTT anti-proliferative assay, K-562; details: Homo sapiens, K562
caspase-9 = assay: Caspase-9 expression level in HepG-2 cells; details: for Caspase-9 ± SE: HepG-2, at IC50 concentrations, control 11.01
Experimental: as §1, §2, §3, §4, §5, §6

TNF-alpha = TNF-alpha level in HepG-2 cells; details: control 43.48
Experimental: as §1, §2, §3, §4, §5, §6

IL-6R = IL-6R level in HepG-2 cells
Experimental: as §1, §2, §3, §4, §5, §6

O=C(Cn1cnc2cc(Cl)ccc2c1=O)Nc1ccc(F)c(Cl)c1 [8e, N-(3-Chloro-4-fluorophenyl)-2-(7-chloro-4-oxoquinazolin-3(4H)-yl)acetamide] was tested. Which viability at 0.195 µmol (MCF-7; MCF-7, 0.195 umol) did it give?
The viability at 0.195 µmol was 81.5%.

What about the cytotoxicity at 0.195 µmol (MCF-7; MCF-7, 0.195 umol, read-out: Toxicity %) of the same compound?
The cytotoxicity at 0.195 µmol was 18.5%.

What about the viability at 0.391 µmol (MCF-7; MCF-7, 0.391 umol) of the same compound?
The viability at 0.391 µmol was 62.1%.

What about the cytotoxicity at 0.391 µmol (MCF-7; MCF-7, 0.391 umol, read-out: Toxicity %) of the same compound?
Its cytotoxicity at 0.391 µmol is 37.9%.

And the viability at 0.781 µmol (MCF-7; MCF-7, 0.781 umol)?
The viability at 0.781 µmol was 32.7%.

What about the cytotoxicity at 0.781 µmol (MCF-7; MCF-7, 0.781 umol, read-out: Toxicity %) of the same compound?
Its cytotoxicity at 0.781 µmol is 67.3%.

What about the viability at 1.563 µmol (MCF-7; MCF-7, 1.563 umol) of the same compound?
The viability at 1.563 µmol was 19%.

What about the cytotoxicity at 1.563 µmol (MCF-7; MCF-7, 1.563 umol, read-out: Toxicity %) of the same compound?
Its cytotoxicity at 1.563 µmol is 81%.

And the viability at 3.125 µmol (MCF-7; MCF-7, 3.125 umol)?
Its viability at 3.125 µmol is 12.8%.

And the cytotoxicity at 3.125 µmol (MCF-7; MCF-7, 3.125 umol, read-out: Toxicity %)?
Its cytotoxicity at 3.125 µmol is 87.2%.

And the viability at 6.25 µmol (MCF-7; MCF-7, 6.25 umol)?
Its viability at 6.25 µmol is 9.01%.

And the cytotoxicity at 6.25 µmol (MCF-7; MCF-7, 6.25 umol, read-out: Toxicity %)?
Its cytotoxicity at 6.25 µmol is 91%.

What about the viability at 12.5 µmol (MCF-7; MCF-7, 12.5 umol) of the same compound?
The viability at 12.5 µmol was 7.65%.

And the cytotoxicity at 12.5 µmol (MCF-7; MCF-7, 12.5 umol, read-out: Toxicity %)?
The cytotoxicity at 12.5 µmol was 92.3%.

What about the viability at 25 µmol (MCF-7; MCF-7, 25 umol) of the same compound?
Its viability at 25 µmol is 6.46%.

What about the cytotoxicity at 25 µmol (MCF-7; MCF-7, 25 umol, read-out: Toxicity %) of the same compound?
The cytotoxicity at 25 µmol was 93.5%.

And the IC50 (MCF-7; MTT, MCF-7, read-out: Cytotoxicity against cancer cells IC50 MCF-7)?
The IC50 was 552.3 ± 1.7 nM.

And the viability at 0.195 µg/mL (HepG-2; HepG-2, 0.195 ug/ml)?
The viability at 0.195 µg/mL was 93.8%.

What about the cytotoxicity at 0.195 µg/mL (HepG-2; HepG-2, 0.195 ug/ml, read-out: Toxicity %) of the same compound?
The cytotoxicity at 0.195 µg/mL was 6.15%.

What about the viability at 0.391 µg/mL (HepG-2; HepG-2, 0.391 ug/ml) of the same compound?
The viability at 0.391 µg/mL was 75.6%.

And the cytotoxicity at 0.391 µg/mL (HepG-2; HepG-2, 0.391 ug/ml, read-out: Toxicity %)?
The cytotoxicity at 0.391 µg/mL was 24.4%.

What about the viability at 0.781 µg/mL (HepG-2; HepG-2, 0.781 ug/ml) of the same compound?
Its viability at 0.781 µg/mL is 62.3%.

And the cytotoxicity at 0.781 µg/mL (HepG-2; HepG-2, 0.781 ug/ml, read-out: Toxicity %)?
Its cytotoxicity at 0.781 µg/mL is 37.7%.

What about the viability at 1.563 µg/mL (HepG-2; HepG-2, 1.563 ug/ml) of the same compound?
Its viability at 1.563 µg/mL is 47.6%.

And the cytotoxicity at 1.563 µg/mL (HepG-2; HepG-2, 1.563 ug/ml, read-out: Toxicity %)?
Its cytotoxicity at 1.563 µg/mL is 52.4%.

What about the viability at 3.125 µg/mL (HepG-2; HepG-2, 3.125 ug/ml) of the same compound?
The viability at 3.125 µg/mL was 23.1%.

What about the cytotoxicity at 3.125 µg/mL (HepG-2; HepG-2, 3.125 ug/ml, read-out: Toxicity %) of the same compound?
Its cytotoxicity at 3.125 µg/mL is 76.9%.

What about the viability at 6.25 µg/mL (HepG-2; HepG-2, 6.25 ug/ml) of the same compound?
Its viability at 6.25 µg/mL is 11.9%.

And the cytotoxicity at 6.25 µg/mL (HepG-2; HepG-2, 6.25 ug/ml, read-out: Toxicity %)?
Its cytotoxicity at 6.25 µg/mL is 88.1%.

And the viability at 12.5 µg/mL (HepG-2; HepG-2, 12.5 ug/ml)?
The viability at 12.5 µg/mL was 9.45%.

And the cytotoxicity at 12.5 µg/mL (HepG-2; HepG-2, 12.5 ug/ml, read-out: Toxicity %)?
The cytotoxicity at 12.5 µg/mL was 90.5%.

What about the viability at 25 µg/mL (HepG-2; HepG-2, 25 ug/ml) of the same compound?
The viability at 25 µg/mL was 7.22%.

What about the cytotoxicity at 25 µg/mL (HepG-2; HepG-2, 25 ug/ml, read-out: Toxicity %) of the same compound?
Its cytotoxicity at 25 µg/mL is 92.8%.

What about the IC50 (HepG-2; MTT, HepG-2, read-out: Cytotoxicity against cancer cells IC50 HepG-2) of the same compound?
The IC50 was 1436 ± 7.3 nM.

What about the “Caspase-3 ± SE” value (caspase-3) of the same compound?
Its value is 1.54 ± 0.11 ng/mL.

And the “Caspase-3 ± SE” value (caspase-3; listed as R5)?
Its value is 1.54 ng/mL.

And the “caspase-3 expression level, fold increase” value (caspase-3; HepG-2, vs control cells)?
The value was 3.35 fold.

What about the viability at 0.195 µmol (K-562; K-562, 0.195 umol) of the same compound?
Its viability at 0.195 µmol is 52.8%.

What about the cytotoxicity at 0.195 µmol (K-562; K-562, 0.195 umol, read-out: Toxicity %) of the same compound?
The cytotoxicity at 0.195 µmol was 47.2%.

What about the viability at 0.391 µmol (K-562; K-562, 0.391 umol) of the same compound?
Its viability at 0.391 µmol is 45.2%.

And the cytotoxicity at 0.391 µmol (K-562; K-562, 0.391 umol, read-out: Toxicity %)?
Its cytotoxicity at 0.391 µmol is 54.8%.

And the viability at 0.781 µmol (K-562; K-562, 0.781 umol)?
The viability at 0.781 µmol was 31.6%.

What about the cytotoxicity at 0.781 µmol (K-562; K-562, 0.781 umol, read-out: Toxicity %) of the same compound?
The cytotoxicity at 0.781 µmol was 68.4%.

And the viability at 1.563 µmol (K-562; K-562, 1.563 umol)?
Its viability at 1.563 µmol is 21.1%.

And the cytotoxicity at 1.563 µmol (K-562; K-562, 1.563 umol, read-out: Toxicity %)?
The cytotoxicity at 1.563 µmol was 78.9%.

What about the viability at 3.125 µmol (K-562; K-562, 3.125 umol) of the same compound?
Its viability at 3.125 µmol is 10.3%.

What about the cytotoxicity at 3.125 µmol (K-562; K-562, 3.125 umol, read-out: Toxicity %) of the same compound?
Its cytotoxicity at 3.125 µmol is 89.7%.

What about the viability at 6.25 µmol (K-562; K-562, 6.25 umol) of the same compound?
The viability at 6.25 µmol was 8.78%.

And the cytotoxicity at 6.25 µmol (K-562; K-562, 6.25 umol, read-out: Toxicity %)?
Its cytotoxicity at 6.25 µmol is 91.2%.

What about the viability at 12.5 µmol (K-562; K-562, 12.5 umol) of the same compound?
The viability at 12.5 µmol was 7.43%.

What about the cytotoxicity at 12.5 µmol (K-562; K-562, 12.5 umol, read-out: Toxicity %) of the same compound?
The cytotoxicity at 12.5 µmol was 92.6%.

And the viability at 25 µmol (K-562; K-562, 25 umol)?
Its viability at 25 µmol is 5.91%.

And the cytotoxicity at 25 µmol (K-562; K-562, 25 umol, read-out: Toxicity %)?
The cytotoxicity at 25 µmol was 94.1%.

What about the IC50 (K-562; MTT, K-562, read-out: Cytotoxicity against cancer cells IC50 K-562) of the same compound?
The IC50 was 266.4 ± 1.7 nM.

What about the “Caspase-9 ± SE” value (caspase-9) of the same compound?
Its value is 48.44 ± 1.24 ng/L.

What about the “Caspase-9 ± SE” value (caspase-9; listed as R5) of the same compound?
Its value is 48.44 ng/L.

What about the “caspase-9 expression level, fold increase” value (caspase-9; HepG-2, vs control cells) of the same compound?
The value was 4.4 fold.

What about the “TNF-alpha ±SE” value (TNF-alpha; HepG-2, at IC50 concentrations) of the same compound?
Its value is 32.07 ± 2.32 ng/L.

And the “TNF-alpha ±SE” value (TNF-alpha; raw data, HepG2)?
The value was 27.34 ng/L.

And the “IL-6R ± SE” value (IL-6R; HepG-2, at IC50 concentrations, control 44.10)?
The value was 11.93 ± 0.25 ng/L.

What about the IL-6R protein level (IL-6R; HepG-2, control 44.10%) of the same compound?
Its IL-6R protein level is 11.93 ng/L.

What about the “IL-6 ±SE” value (IL-6R; raw data, HepG2, control 44.10) of the same compound?
The value was 28.78 ng/L.

Reference: article PMC12377202, “Design, synthesis, and cytotoxic evaluation of quinazoline-based derivatives as VEGER-2 inhibitors: comparative study against EGFR kinase activity, induction of apoptosis, and molecular docking study” (RSC Advances, 2025)
